Assay: Chemical stability test of dry solid powders (FTIR, photographs)
Assay type: physicochemical
Settings: RH=79%
Experimental: The dry solid powders of SBSi and SBSiT obtained above are placed in a laboratory environment (RH=79%, temperature=24° C.) for 24 hours, and the chemical stabilities of SBSi and SBSiT are examined by Fourier transform infrared spectroscopy (FTIR). Referring to FIG. 1A, signals is centered at 1050 and 1612 cm^−1 corresponding to Vas(SO3^−) and Vb(N(CH3)^+), respectively, so as to ensure that all samples have a sulfobetaine moiety.

- FTIR spectra / absorption intensity after storage for 24 hours compared with before storage (dry solid powder, temperature=24° C.): significantly lower
- appearance of solid after storage for 24 hours (hygroscopic properties) (moisture environment, 24° C.): clearly deliquescent
Structure (SMILES): CO[Si](CCC[N+](C)(C)CCCS(=O)(=O)[O-])(OC)OC [SBSi, sulfobetaine silane, reference compound]
